For data set [1], the system named is Vero cells. Description: Trypan-blue exclusion assay (cytotoxicity). It counts as cell-based. How it is done: Uninfected Vero cells in serum-free or serum-supplemented DMEM where treated for 1 hour at 37° C. with antiviral peptide SEQ ID NO:1 or control peptide EBX (SEQ ID NO:17), rinsed with PBS, stained for […] at 23° C. with 0.4% trypan-blue in PBS, rinsed again with PBS and air dried.

The subject of data set [2] is hrR3. Description: Virucidal assay. It counts as cell-based. The note with it: overnight dialysis against serum-containing medium. How it is done: […] The treated virus was diluted 200-fold with serum-supplemented DMEM and assayed for infectivity approximately 1 hour later in microtiter wells seeded with Vero cells (3.5×10^4 cells/well) 1 d earlier. Forty or 100 microliter volumes of diluted virus were adsorbed for 1 or 2 h at 37° C. and lacZ^+ cells were scored 8 hours later. In some experiments, aliquots of diluted virus were first dialyzed (Spectra/Por; MWCO 12-14,000) overnight at 4° C. against a 60-fold excess volume of Hepes-buffered serum-supplemented DMEM or forced by syringe through 0.22 μm membranes (Millex-GV; Millipore) before the remaining infectious virus was assayed.

In data set [3] the test system is HSV-1 KOS. The data set can be described thus: Plaque reduction assay, HSV-1 KOS infection of Vero cell cultures. It counts as cell-based. How it is done: The procedures for growing Vero cells and preparing high titer stocks of HSV-1 KOS as described in (Grau et al., Invest. Ophthal. and Vis. Sci. 30: 2474 (1989)) were utilized. Vero cells were maintained in carbonate-buffered DMEM supplemented with 5% calf serum and 5% fetal bovine serum (regular medium). For some studies, cells were switched to serum-free DMEM buffered with 25 mM Hepes (pH 7.4) and allowed to adapt to that medium for 30 min prior to experimental treatments. Vero cells were seeded into wells (0.28 cm^2) of microtiter plates either at 3.5×10^4 cells/well for use 1 day later (8×10^4 cells/well) or at 1×10^4 cells/well for use 3 days later (2×10^5 cells/well).
Confluent Vero cell cultures in microtiter plates were infected for 1 hour at 37° C. in 40 μl of medium. Except where indicated, peptide treatments in 40 μl of medium lasted from 1 hour before through 1 hour after infection. At the end of the adsorption period, the cultures were re-fed with 100 μl of regular medium. Plaque formation was scored 2 days later and the number of plaques scored per well was normalized to the number counted in the absence of peptide. Using an ocular micrometer, plaque size ([…]) was determined by measuring the largest plaque diameter (L) and the diameter at a 90° angle to that (S). The size of each of the first 40 scored plaques was measured except when a plaque included less than 10 rounded cells or touched the side of the well.
On the technique in general: In a plaque reduction assay, fewer plaques than in the control indicate reduced infectivity or spread.

Data set [4] relates to HSV-1 KOS virions. The data set can be described thus: Electron microscopy of peptide-treated virions (aggregation). The note with it: 25 μM peptide, purified virus particles. As for the experimental part:
Purified HSV-1 KOS virions (2.5×10^7 pfu/ml) according to Visalli et al., Virus Res. 29:167 (1993) were treated with 25 μM antiviral peptide SEQ ID NO:1 or the control peptide EBX (SEQ ID NO: 17) in 40 μl serum-free DMEM buffered with 25 mM Hepes (pH 7.4) for 5 to 60 min at 4 or 23° C. Aliquots (10 μl) were adsorbed to pioloform poly-L-lysine-coated grids for 5 min at 23° C. Grids were rinsed with PBS, stained with 2% phosphotungstic acid (PTA) in water adjusted to pH ˜6 and air dried. Alternatively, virus was pre-adsorbed to grids and treated with peptides thereafter. A total of 4×10^9 pfu/ml of purified HSV-1 KOS in 5 μl PBS was applied to the coated grids for 5 min at 23° C., and the grids were rinsed once with serum-free DMEM buffered with 25 mM Hepes (pH 7.4) and treated with 15 μl of 5 mM EB or EBX in the same medium for 30 min at 37° C. The pH of highly concentrated solutions of antiviral peptide SEQ ID NO:1 and EBX was re-adjusted to 7.4 with NaOH prior to use. To prevent evaporation of the peptide-containing solutions, each grid was held in a Hiraoka flexible staining plate and covered with miniature bell jar made from an 0.5 ml polypropylene micro-centrifuge tubes, small enough for the 15 μl to fill half of the bell jar facing the coated surface of the grid. The entire assembly was then incubated in a moist chamber for 30 min at 37° C. […]

As to H-RRKKAAVALLPAVLLALLAP-OH [EB], the “cytotoxic concentrations relative to antiviral concentrations” value in data set [1] was found to be 100 fold. Also, in data set [2], the “reversibility of virion inactivation” value is given as “irreversibly inactivated”. For the same substance, the “effect on plaque size” value in data set [3] (EB present before and during adsorption) is reported as “no effect on plaque size”. Moreover, the “fold lower concentration blocking infections compared to control peptide EBX” value in data set [3] (absence of serum (FIG. 1B)) was found to be 100 fold; in data set [3] (presence of serum (FIG. 1A)), 10 fold. In data set [3] (peptide present during infection of Vero cells with HSV-1 KOS), the “effect on plaque formation” value is given as “blocking plaque formation”. For the same substance, the “combined mean plaque size” value in data set [3] (transient treatments with 6 and 12 μM EB (up to 1 hour post-infection)) is 68,000±11,000 μm^2. Besides, in data set [4], the “state of virus particles by electron microscopy” value is recorded as “nearly all of the particles were seen in relatively few large aggregates”.
